Laboratory results reported in patent publication US20060263802A1 (priority 2003, published 2006).

How the values were obtained:
Type in all cases: binding
[1] = tested on: human monoclonal antibody CRJB
[2] = tested on: human monoclonal antibody CR57
[3] = tested on: human monoclonal antibody CRJA
[4] = tested on: human monoclonal antibody CRJB; remark: listed apart in the source
[5] = tested on: human monoclonal antibody CR57; remark: listed apart in the source
[6] = tested on: human monoclonal antibody CRJA; remark: listed apart in the source

Sequence | Binding of CRJB to linear peptide (PEPSCAN-ELISA signal) [1] | Binding of CR57 to linear peptide (PEPSCAN-ELISA signal) [2] | Binding of CRJA to linear peptide (PEPSCAN-ELISA signal) [3] | Binding of CRJB (10 μg/ml) to looped/cyclic peptide (PEPSCAN-ELISA signal) [4] | Binding of CR57 (10 μg/ml) to looped/cyclic peptide (PEPSCAN-ELISA signal) [5] | Binding of CRJA (10 μg/ml) to looped/cyclic peptide (PEPSCAN-ELISA signal) [6] | Binding of CRJB (10 μg/ml) to looped/cyclic peptide (PEPSCAN-ELISA) [4] | Binding of CR57 (10 μg/ml) to looped/cyclic peptide (PEPSCAN-ELISA) [5] | Binding of CRJA (10 μg/ml) to looped/cyclic peptide (PEPSCAN-ELISA) [6] | Binding of human monoclonal antibody CRJB to linear peptide (PEPSCAN-ELISA signal) [1] | Binding of human monoclonal antibody CR57 to linear peptide (PEPSCAN-ELISA signal) [2] | Binding of human monoclonal antibody CRJA to linear peptide (PEPSCAN-ELISA signal) [3] | Binding of CRJB to looped/cyclic peptide (PEPSCAN-ELISA signal) [4] | Binding of CR57 to looped/cyclic peptide (PEPSCAN-ELISA signal) [5] | Binding of CRJA to looped/cyclic peptide (PEPSCAN-ELISA signal) [6]
AYNWKMAGDPRYEES | 94 | 96 | 90 | 77 | 96 | 72 | – | – | – | – | – | – | – | – | –
IEHLVVEELVRKREE | 129 | 90 | 100 | – | – | – | 112 | 103 | 112 | – | – | – | – | – | –
MPENPRLGMSCDIFT | 121 | 105 | 107 | 87 | 107 | 111 | – | – | – | – | – | – | – | – | –
DKLGPWSPIDIHHLS | 103 | 62 | 78 | 70 | 104 | 89 | – | – | – | – | – | – | – | – | –
LADPSTVFKDGDEAE | – | – | – | – | – | – | – | – | – | 116 | 68 | 86 | 90 | 134 | 90
REECLDALESIMTTK | 110 | 94 | 94 | – | – | – | 79 | 89 | 92 | – | – | – | – | – | –
RKREECLDALESIMT | 110 | 73 | 96 | – | – | – | 96 | 132 | 129 | – | – | – | – | – | –
KSVSFRRLSHLRKLV | 124 | 108 | 111 | – | – | – | 97 | 114 | 88 | – | – | – | – | – | –
RSDEIEHLVVEELVR | 138 | 100 | 93 | – | – | – | 93 | 136 | 107 | – | – | – | – | – | –
VSFRRLSHLRKLVPG | 111 | 90 | 55 | – | – | – | 94 | 141 | 99 | – | – | – | – | – | –
MAGDPRYEESLHNPY | 116 | 64 | 71 | 62 | 65 | 71 | – | – | – | – | – | – | – | – | –
IPLVHPLADPSTVFK | 156 | 96 | 130 | – | – | – | 107 | 99 | 106 | – | – | – | – | – | –
CTGVVTEAENYTNFV | 123 | 76 | 89 | 85 | 92 | 101 | – | – | – | – | – | – | – | – | –
RRLSHLRKLVPGFGK | 143 | 92 | 85 | – | – | – | 88 | 111 | 96 | – | – | – | – | – | –
ETCGFVDERGLYKSL | 120 | 64 | 85 | – | – | – | 78 | 90 | 75 | – | – | – | – | – | –
